Test results published in patent US11472766B2, “Lipid nanoparticle composition” (Suzhou Abogen Biosciences Co., Ltd., priority 2020, dated 2022).

What was measured:
[1] = Apparent pKa of LNP formulations (TNS fluorescence assay); settings: LNP cationic lipid/DSPC/cholesterol/DMG-PEG 50/10/38.5/1.5 mol %
[2] = Encapsulation efficiency of lipid nanoparticles (Quant-it Ribogreen RNA quantification assay); assay type: physicochemical; settings: LNP encapsulating hEPO mRNA
Method in brief: (§1)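 LNPs of cationic lipid:DSPC:cholesterol:PEG-lipid (50:10:38.5:1.5 molar) with mRNA in 10–50 mM citrate pH 4, microfluidic mixing at 1:3 ethanol:aqueous, lipid:mRNA weight ratio ~10:1–30:1, dialysed into DPBS and 0.2 μm filtered. Size by DLS, 173° backscatter; encapsulation efficiency by Ribogreen assay.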

[3] = tested on: human erythropoietin (hEPO) mRNA; test: Animal study: hEPO expression after tail vein injection of LNPs encapsulating hEPO mRNA (serum ELISA); assay type: in vivo; settings: hEPO level, female ICR mice, 0.5 mg/kg, 6 hours post administration; for Expression at 6 h (μg/ml): class symbols, Table 3; for Expression at 6 h: Table 2
Method in brief: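 Female ICR mice (6-8 weeks) received LNPs carrying hEPO mRNA by tail vein injection at 0.5 mg/kg, with MC3 LNPs dosed the same way as positive control. Blood was drawn at set times (e.g., 6 h) and serum separated. hEPO was quantified by ELISA and reported as μg/ml.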

[4] = Lipid nanoparticle size by dynamic light scattering (Malvern Zetasizer Nano ZS); assay type: physicochemical; settings: LNP: cationic lipid/DSPC/cholesterol/PEG-lipid 50:10:38.5:1.5, hEPO mRNA
Method in brief: as §1

| Structure (SMILES) | Apparant Pka ([1]; Table 3) | Encapsulation Efficiency ([2]; Table 3) | Expression at 6 h (μg/ml) [3] | polydispersity ([4]; Table 3) | size nm ([4]; Table 3) | Apparant Pka ([1]; Table 2) | Encapsulation Efficiency ([2]; Table 2) | Expression at 6 h [3] | polydispersity ([4]; Table 2) | size nm ([4]; Table 2) |
| --- | --- | --- | --- | --- | --- | --- | --- | --- | --- | --- |
| CCCCC/C=C\CCCC(=O)C(CC/C=C\CCCCC)C(CCC/C=C\CCCCC)OC(=O)CCCCCN(CCCCCC(=O)OCCC/C=C/CCCCC)CCN(CCO)C1CCC1 (centres unmarked) [Compound 101] | 6.071 | 85.5% | B (≥1 and <2) | 0.067 | 72 nm |  |  |  |  |  |
| CCCCCCCCC(CCCCCC)COC(=O)CCCCCN(CCCCCC(=O)OCC(CCCCCC)CCCCCCCC)CCN(CCO)CCCCCC (centres unmarked) [Compound D] |  |  |  |  |  | 6.28 | 95.5% | 1.02 µg/mL | 0.118 | 59.2 nm |
| CCCCCCCCC(CCCCCC)COC(=O)NCCCCN(CCCCNC(=O)OCC(CCCCCC)CCCCCCCC)CCN(CCO)C1CCCCC1 (centres unmarked) [Compound 124] | 6.984 | 96.9% | A (≥2) | 0.061 | 64.66 nm |  |  |  |  |  |
| CCCCCCCCC(CCCCCCCC)CNC(=O)CCCCCN(CCCCCC(=O)OCC(CCCCCCCC)CCCCCCCC)CCN(CCO)C1CCCCC1 [Compound 138] | 6.688 | 94.50% | A (≥2) | 0.013 | 63.52 nm |  |  |  |  |  |
| CCCCCCCCC(CCCCCC)COC(=O)CCCCCN(CCCCCC(=O)OCC(CCCCCC)CCCCCCCC)CCNCCO (centres unmarked) [Compound A] |  |  |  |  |  | 6.96 | 100.0% | 0.01 µg/mL | 0.108 | 58.5 nm |
| CCCCCCCCC(CCCCCC)C(=O)OCCCCCCCCCN(CCCCCCCCCOC(=O)C(CCCCCC)CCCCCCCC)CCN(CCO)C1CCC1 (centres unmarked) [Compound 44] | 6.049 | 97.5% | B (≥1 and <2) | 0.063 | 83.85 nm |  |  |  |  |  |
| CCCCCCCCC(CCCCCC)CNC(=O)CCCCCN(CCCCCC(=O)OCC(CCCCCC)CCCCCCCC)CCN(CCC)C1CCC(O)CC1 (centres unmarked) [Compound 133] | 6.668 | 90.6% | A (≥2) | 0.083 | 109.90 nm |  |  |  |  |  |
| CCCCCCCCC(CCCCCC)CNC(=O)CCCCCN(CCCCCC(=O)NCC(CCCCCC)CCCCCCCC)CCN(CCO)C1CCCCC1 (centres unmarked) [Compound 120] | 6.264 | 97.1% | B (≥1 and <2) | 0.1 | 59.78 nm |  |  |  |  |  |
| CCCCCCCC(CCCCCCC)COC(=O)CCCCCN(CCCCCC(=O)OCC(CCCCCCC)CCCCCCC)CCN(CCO)C1CCC1 [Compound 49] | 6.249 | 94.1% | A (≥2) | 0.075 | 65.13 nm |  |  |  |  |  |
| CCCCCCC(CCCCCC)COC(=O)CCCCCN(CCCCCC(=O)OCC(CCCCCC)CCCCCC)CCN(CCO)C1CCC1 [Compound 48] | 6.347 | 91.80% | A (≥2) | 0.065 | 72.52 nm |  |  |  |  |  |
| CCCCCCCCC(CCCCCC)COC(=O)CCCCCN(CCCCCC(=O)OCC(CCCCCC)CCCCCCCC)CCN(C)C1CC(O)C1 (centres unmarked) [Compound 59] | 6.682 | 97.7% | B (≥1 and <2) | 0.008 | 93.24 nm |  |  |  |  |  |
| CCCCCCCCC(CCCCCC)COC(=O)CCCCCN(CCCCCC(=O)OCC(CCCCCC)CCCCCCCC)C(=O)CCN(CCO)C1CCC1 (centres unmarked) [Compound 12] | 5.801 | 99.80% | D (<0.1) | 0.015 | 75.86 nm |  |  |  |  |  |
| CCCCCCCCC(CCCCCCCC)CC(=O)NCCCCCN(CCCCCOC(=O)CC(CCCCCCCC)CCCCCCCC)CCN(CCO)C1CCCC1 [Compound 143] | 6.836 | 93.2% | A (≥2) | 0.032 | 58.61 nm |  |  |  |  |  |
| CCCCCCC(CCCCCC)CC(=O)NCCCCCN(CCCCCOC(=O)CC(CCCCCC)CCCCCC)CCN(CCO)C1CC1 [Compound 153] | 6.621 | 85.5% | A (≥2) | 0.059 | 107.4 nm |  |  |  |  |  |
| CCCCCCCCC(CCCCCC)COC(=O)CCCCCN(CCCCCC(=O)OCC(CCCCCC)CCCCCCCC)CCN(CCO)C1CCSCC1 (centres unmarked) [Compound 91] | 6.257 | 92.1% | B (≥1 and <2) | 0.106 | 62.06 nm |  |  |  |  |  |
| CCCCCCCCCCCOC(=O)CCCCCN(CCCCCC(=O)NCC(CCCCCCCC)CCCCCCCC)CCN(CCO)C1CCCCC1 [Compound 148] | 7.146 | 85.6% | A (≥2) | 0.046 | 83.84 nm |  |  |  |  |  |
| CCCCCCCCC(CCCCCC)COC(=O)CCCCCN(CCCCCC(=O)OCC(CCCCCC)CCCCCCCC)CCN(CCO)c1ccccc1 (centres unmarked) [Compound 7] |  |  |  |  |  | 5.39 | 47.0% | 0.00 µg/mL | 0.110 | 149.1 nm |
| CCCCCCCCC(CCCCCCCC)COC(=O)CCCCCN(CCCCCC(=O)OCC(CCCCCCCC)CCCCCCCC)CCN(CCCCC)C1CCC(O)CC1 (centres unmarked) [Compound 74] | 6.2 | 93.2% | B (≥1 and <2) | 0.076 | 54.58 nm |  |  |  |  |  |
| CCCCCCCCC(CCCCCC)COC(=O)CCCCCN(CCCCCC(=O)OCC(CCCCCC)CCCCCCCC)C(=O)CN(CCO)C1CCC1 (centres unmarked) [Compound 11] | 5.662 | 90.9% | D (<0.1) | 0.109 | 67.23 nm |  |  |  |  |  |
